Test results from patent US20150141324A1 (priority 2011, published 2015).
Peptide text beside a SMILES is read from it. * marks the point of attachment. NH(4-amidinobenzyl) = N=C(N)c1ccc(CN*)cc1; Decanoyl = CCCCCCCCCC(=O)*; X2 = N=C(N)NC/C=C/CN*; CH2Cl = ClC*

Columns and labels:
[1] = test system: Escherichia coli O157:H7 Shiga toxin
[2] = target: T1, furin (Homo sapiens, UniProt P09958); type: cell-based
T1 construct: endogenous in cells; host or cells: HEK293
T1 sequence (P09958 108-794): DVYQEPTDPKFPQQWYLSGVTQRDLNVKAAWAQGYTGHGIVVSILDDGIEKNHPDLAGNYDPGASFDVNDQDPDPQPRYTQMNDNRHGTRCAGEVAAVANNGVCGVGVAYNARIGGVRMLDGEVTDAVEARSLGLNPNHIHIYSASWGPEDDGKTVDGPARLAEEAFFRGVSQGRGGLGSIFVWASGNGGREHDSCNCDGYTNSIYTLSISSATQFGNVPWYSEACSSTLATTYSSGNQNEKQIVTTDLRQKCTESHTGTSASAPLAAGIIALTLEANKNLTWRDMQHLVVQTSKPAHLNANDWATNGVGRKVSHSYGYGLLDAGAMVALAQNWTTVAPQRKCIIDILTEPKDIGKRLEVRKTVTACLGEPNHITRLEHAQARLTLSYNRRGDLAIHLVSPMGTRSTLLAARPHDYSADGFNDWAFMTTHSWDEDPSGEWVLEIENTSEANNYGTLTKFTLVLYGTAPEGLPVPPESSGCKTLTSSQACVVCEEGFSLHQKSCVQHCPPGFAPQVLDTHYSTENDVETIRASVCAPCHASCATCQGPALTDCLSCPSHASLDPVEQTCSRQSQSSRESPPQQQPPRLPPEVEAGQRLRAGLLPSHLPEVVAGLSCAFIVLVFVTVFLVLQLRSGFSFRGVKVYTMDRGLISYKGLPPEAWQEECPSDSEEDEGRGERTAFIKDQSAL

Structure (SMILES): C[C@H](NC(=O)[C@H](CCCNC(=N)N)NC(=O)CCCCCCCN)C(=O)N[C@@H](CCCNC(=N)N)C(=O)N[C@@H](CCCNC(=N)N)C(=O)N[C@@H](CCCNC(=N)N)C(=O)N[C@@H](CCCCN)C(=O)N[C@@H](CCCCN)C(=O)NN(CCCNC(=N)N)CC(=O)N[C@H](C(N)=O)[C@@H](C)O [Aoc-RxxT[Azaβ3R]^P1]
- IC50 [1]: 16.7 µM
- IC50 described in words [1]: similar
- potency against furin in cell fusion inhibition, compared to RxxT control peptide [2]: increased potency

Structure (SMILES): CCCCCCCCCC(=O)N[C@@H](CCCNC(=N)N)C(=O)N[C@H](C(=O)N[C@@H](CCCCN)C(=O)N[C@@H](CCCNC(=N)N)C(=O)CCl)[C@@H](C)O [DEC-RTKR-CMK, reference compound] (Decanoyl-RTKR-CH2Cl)
- IC50 [1]: 11.5 µM

Structure (SMILES): CC(=O)N[C@@H](CCCNC(=N)N)C(=O)N[C@@H](C)C(=O)N[C@@H](CCCNC(=N)N)C(=O)N[C@@H](CCCNC(=N)N)C(=O)N[C@@H](CCCNC(=N)N)C(=O)N[C@@H](CCCCN)C(=O)N[C@@H](CCCCN)C(=O)N[C@@H](CCCNC(=N)N)C(=O)N[C@H](C(N)=O)[C@@H](C)O [RxxT, Ac-R-A-R-R-R-K-K-R-T-NH2, reference compound]
- IC50 [1]: > 1000 µM

Structure (SMILES): CC(=O)NN(CCCNC(=N)N)CC(=O)N[C@@H](C)C(=O)N[C@@H](CCCNC(=N)N)C(=O)N[C@@H](CCCNC(=N)N)C(=O)N[C@@H](CCCNC(=N)N)C(=O)N[C@@H](CCCCN)C(=O)N[C@@H](CCCCN)C(=O)NN(CCCNC(=N)N)CC(=O)N[C@H](C(N)=O)[C@@H](C)O [RxxT[Azaβ3R]^P1-P8]
- IC50 [1]: 20.8 µM
- IC50 described in words [1]: similar
- potency against furin in cell fusion inhibition, compared to RxxT control peptide [2]: increased potency

Structure (SMILES): CC(=O)N[C@@H](CCCNC(=N)N)C(=O)N[C@@H](C)C(=O)N[C@@H](CCCNC(=N)N)C(=O)N[C@@H](CCCNC(=N)N)C(=O)N[C@@H](CCCNC(=N)N)C(=O)N[C@@H](CCCCN)C(=O)N[C@@H](CCCCN)C(=O)NN(CCCNC(=N)N)CC(=O)N[C@H](C(N)=O)[C@@H](C)O [RxxT[Azaβ3R]^P1]
- IC50 [1]: 314 µM
- IC50 described in words [1]: low IC50 values
- potency against furin in cell fusion inhibition, compared to RxxT control peptide [2]: increased potency

Structure (SMILES): CC(=O)N[C@@H](CCCNC(=N)N)C(=O)N[C@@H](C)C(=O)N[C@@H](CCCNC(=N)N)C(=O)N[C@@H](CCCNC(=N)N)C(=O)N[C@@H](CCCNC(=N)N)C(=O)N[C@@H](CCCCN)C(=O)N[C@@H](CCCCN)C(=O)NCc1ccc(C(=N)N)cc1 [Rxx[AMBA]^P1] (Ac-RARRRKK-{NH(4-amidinobenzyl)})
- IC50 [1]: > 1000 µM

Structure (SMILES): CC(=O)N[C@@H](CCCNC(=N)N)C(=O)N[C@@H](C)C(=O)N[C@@H](CCCNC(=N)N)C(=O)N[C@@H](CCCNC(=N)N)C(=O)N[C@@H](CCCNC(=N)N)C(=O)N[C@@H](CCCCN)C(=O)N[C@@H](CCCCN)C(=O)NC/C=C/CNC(=N)N [Rxx[ΔAR-CO2]^P1] (Ac-RARRRKK-X2; N-terminus and C-terminus assumed)
- IC50 [1]: 71 µM
- IC50 described in words [1]: low IC50 values
- potency against furin in cell fusion inhibition, compared to RxxT control peptide [2]: increased potency
